Results reported in patent publication US20080167461A1, “Process for Preparing 3,6-Dichloropyridazine-1-Oxide” (SANKYO AGRO COMPANY, LIMITED, priority 2005, published 2008).

Columns and labels:
[1] = tested on: dominant weeds of rice paddies; assay: Herbicidal activity in rice paddies, flooding soil treatment before or after weed germination (general statement); type: in vivo
Text: The compound synthesized in Reference Example 1 has herbicidal action, and can be used as a herbicide.

rice plants = assay: Chemical damage to transplanted rice plants (flooding soil treatment, pot test); type: in vivo
Text: (§1) Rice paddy soil was filled into a 1/10,000a pot, followed by mixing seeds of dormancy awakening Echinochloa oryzicola and Scirpus joncoides, and annual broadleaf weeds (Lindernia spp. and Rotala indica) in 1 cm of the surface layer of soil. In addition, Cyperus serotinus tubers subjected to accelerated germination were planted, followed by transplanting rice seedlings at the 2.2 leaf stage and growing under flooding conditions in a greenhouse. Three days after transplant, a predetermined dose of the wettable powder prepared according to Reference Example 2 was diluted with water, the soil was treated with a spraying solution thereof under flooding conditions and herbicidal effects and chemical damage to the transplanted rice plants were measured according to the evaluation criteria shown below 25 days after treatment.
(§2) 0: Growth inhibition rate 0 to 10%
(§3) 1: Growth inhibition rate 11 to 30%
(§4) 2: Growth inhibition rate 31 to 50%
(§5) 3: Growth inhibition rate 51 to 70%
(§6) 4: Growth inhibition rate 71 to 90%
(§7) 5: Growth inhibition rate 91 to 100%

Scirpus joncoides = assay: Treatment prior to germination of rice paddy weeds (flooding soil treatment, pot test); type: in vivo; conditions: dose 10 g/a; wettable powder diluted with water, treated 3 days after transplant under flooding; evaluated 25 days after treatment
Text: as §1, §2, §3, §4, §5, §6, §7

[2] = tested on: annual broadleaf weeds (Lindernia spp. and Rotala indica); assay: as above; type: in vivo; conditions: dose 10 g/a; wettable powder diluted with water, treated 3 days after transplant under flooding; evaluated 25 days after treatment
Text: as §1, §2, §3, §4, §5, §6, §7

Cyperus serotinus = assay: as above; type: in vivo; conditions: dose 10 g/a; wettable powder diluted with water, treated 3 days after transplant under flooding; evaluated 25 days after treatment
Text: as §1, §2, §3, §4, §5, §6, §7

Echinochloa oryzicola = assay: as above; type: in vivo; conditions: dose 10 g/a; wettable powder diluted with water, treated 3 days after transplant under flooding; evaluated 25 days after treatment
Text: as §1, §2, §3, §4, §5, §6, §7

melting point: 214 to 215 °C
Structure (SMILES): Cc1cccc(C)c1Oc1nnc(Cl)cc1O [Reference Example 1, 6-Chloro-3-(2,6-dimethylphenoxy)-4-pyridazinol]
herbicidal activity against dominant weeds of rice paddies [1]: demonstrates herbicidal activity
chemical toxicity with respect to rice (rice plants; flooding soil treatment before or after weed germination, general statement): without demonstrating problems in terms of chemical toxicity
activity against rice plants (chemical damage grade) (rice plants; transplanted rice seedlings (2.2 leaf stage), dose 10 g/a, evaluated 25 days after treatment): 0 (Growth inhibition rate 0 to 10%)
herbicidal activity (growth inhibition grade) against Scirpus joncoides (Scirpus joncoides): 5 (Growth inhibition rate 91 to 100%)
herbicidal activity (growth inhibition grade) against broadleaf weeds [2]: 5 (Growth inhibition rate 91 to 100%)
herbicidal activity (growth inhibition grade) against Cyperus serotinus (Cyperus serotinus): 5 (Growth inhibition rate 91 to 100%)
herbicidal activity (growth inhibition grade) against Echinochloa oryzicola (Echinochloa oryzicola): 2 (Growth inhibition rate 31 to 50%)
